In one series the test system is Rat Müller cells (rMC-1). Description: TNFalpha and cleaved caspase 3 ELISA in Müller cells cultured in high glucose. The series is classed as cell-based. The method, then:
(§1) Human retinal endothelial cells (HREC) were purchased from Cell Systems (Kirkland, Wash.) and grown in either basal (5 mM glucose) or growth (25 mM glucose) media. Both media is supplemented with 10% FBS and antibiotics. The day prior to experiments, cells are serum-starved for 18-24 hours. Rat Müller cells (rMC-1) were grown in DMEM medium with 5 mM glucose or 25 mM glucose. Media was supplemented with 10% FBS and antibiotics. Cells were serum starved prior to all experiments for 18-24 hours.
(§2) Human retinal endothelial cells (HREC) and rat Muller cells (rMC-1) in both glucose conditions were treated with Compound 2 at doses of 10 nM, 50 nM, 100 nM, 1 μM, and 10 μM of Compound 2. Cells of each type were grown in medium containing L-glucose to control for changes in osmolarity. 10 μM isoproterenol was also used for each condition as a positive control. Müller cells were treated for 1 hour and 24 hours, while HREC were treated for 30 and 60 minutes.
(§3) Following treatment, cells were collected into lysis buffer containing protease and phosphatase inhibitors. ELISA analyses for TNFalpha, cleaved caspase 3, and PKA were done according to manufacturers instructions. Data is compared against non-treated cells and cells at the various doses. A Kruskal-Wallis test is done, with a Dunn's test for secondary analyses. […] The dose that decreases TNFalpha and caspase 3 levels also increases PKA activity.

In series [1] the test system is Human retinal endothelial cells (HREC). Description: TNFalpha and cleaved caspase 3 ELISA in retinal endothelial cells cultured in high glucose. The series is classed as cell-based. The method, then: as §1, §2, §3
On the technique in general: In an ELISA, binding on a coated surface is turned into a signal by an enzyme label.

Series [2] is described as follows: Body weight, blood glucose, blood pressure and intraocular pressure in streptozotocin diabetic rats on eye drop therapy. In kind it is in vivo, rat. To be noted: rats, 50 mM topical dose of isoproterenol.
Experimental: Male Lewis rats purchased from Charles River were used. Diabetic rats received a single injection of 60 mg/kg streptozotocin (Fisher, Pittsburgh, Pa.). […] All rats were weighed weekly and only rats with non-fasting blood glucose levels >250 mg/dl were considered diabetic. The designation of diabetic was made at the beginning of the experiments. Glucose was measured bimonthly. No insulin was administered to the rats at any time. To determine whether topical application of Compound 2 could reach the retina and elicit response, dose and time course studies were performed. For those studies, animals were made diabetic for 2 months using STZ. For 4 days, rats received a variety of doses of either Compound 2 (1 mM to 20 mM) or PBS once or twice each day. After the 4 days of eye drop treatment to both eyes, the diabetic and control animals were euthanized. […] After determining the optimal dose and time course for eye drop treatment for Compound 2, three groups of rats were used for this part of the study (control, diabetic (Diabetic), and diabetic+eye drop (Diab+2). Within 1 week of STZ-injection, 12 rats were put onto eye drop therapy. Rats on the eye drop therapy received a daily application of 4 drops of 1 mM Compound 2 to each eye. To verify that insulin levels were lost in the diabetic animals, insulin ELISA (Rat/Mouse Insulin ELISA kit, Linco, St. Charles, Mo.) was done on blood sampled from all rats at 2 months of age. Rats were sacrificed at 2 or 8 months of age. […] Analyses on the rats were done for acute changes (8 weeks of diabetes, 45 rats) and chronic changes (8 months of diabetes, 45 rats). […] Each month, all rats were tested for visual function: electroretinogram (ERG) and live retinal imaging were performed using Optical Coherence Topography (OCT). […] While the animals were asleep for ERG analyses, blood pressure and pulse were monitored to detect potential negative cardiovascular events.
The test system of a further series is retina. To be noted: given systemically to rodents; cited from earlier work.
Where [3] appears, read: Müller cells in high glucose, 50 nM, vs non-treated.
Where [4] appears, read: REC in high glucose, 50 nM, vs non-treated.
Where [5] appears, read: Müller cells, 10 μM isoproterenol.

The text below walks through data of US20120329879A1, “BETA-ADRENERGIC RECEPTOR AGONISTS AND USES THEREOF” (THE UNIVERSITY OF TENNESSEE RESEARCH FOUNDATION, priority 2010, published 2012).

Molecules are shown by their SMILES.

In the case of `COc1cc(CCNC[C@H](O)c2ccc(O)c(O)c2)cc(OC)c1OC.Cl` (single isomer, unassigned) [R-isomer of Compound 2], the “TNFalpha concentration and cleaved caspase 3: comparison of isomers” value was “superior to the S-isomer of Compound 2 and racemic Compound 2” with Rat Müller cells (rMC-1) (Muller cells, 50 nM, 1 hour or 24 hours); “superior to the S-isomer of Compound 2 and racemic Compound 2” in series [1] (retinal endothelial cells, 50 nM, 1 hour or 24 hours).

Regarding `COc1cc(CCNC[C@H](O)c2ccc(O)c(O)c2)cc(OC)c1OC` [Compound 3, 4-[1-hydroxy-2-(1-ethylamino-3-,4-,5-trimethoxyphenyl)ethyl]benzene-1,2-diol], the “TNFalpha levels, in words” value with Rat Müller cells (rMC-1) (setting [3]) is “significantly reduced TNFalpha within 1 hour”; in series [1] (setting [4]), “reduced”. In addition, the “cleaved caspase 3 levels, in words” value (in the series on Rat Müller cells (rMC-1) (setting [3]); in series [1] (setting [4])) was “reduced the cleavage of caspase 3” throughout.

Take `COc1cc(CCNC[C@H](O)c2cc(O)cc(O)c2)cc(OC)c1OC.Cl` [Compound 4, 5-(1-hydroxy-2-[2-(3,4,5-trimethosy-phenyl)-ethylamino]-ethyl)-benzene-1,3-diol hydrochloride]: the “beta-2-adrenergic receptor activity (ELISA data)” value in the series on Rat Müller cells (rMC-1) (Muller cells, 50 nM) is “has more beta-2-adrenergic receptor activity”; in series [1] (REC cells, 50 nM) it was “has more beta-2-adrenergic receptor activity”. For the same compound, in the series with Rat Müller cells (rMC-1) (Muller cells, 50 nM), the “effectiveness and speed compared with Compound 2” value was “more effective and works faster than Compound 2”. Also, the “TNFalpha levels, in words” value (in the series with Rat Müller cells (rMC-1) (setting [3]); in series [1] (setting [4])) was “reduce TNFalpha levels” throughout. The “cleaved caspase 3 levels, in words” value is “reduce TNFalpha levels and the cleavage of caspase 3” in the series on Rat Müller cells (rMC-1) (setting [3]); “reduce TNFalpha levels and the cleavage of caspase 3” in series [1] (setting [4]). For the same compound, the “time to activate response compared with Compound 2” value in series [1] (retinal endothelial cells, 50 nM) is on record as “does take longer to activate response”.

Turning to `CC(C)NCC(O)c1ccc(O)c(O)c1` (centres unmarked) [isoproterenol, 4-[1-hydroxy-2-(isopropylamino)ethyl]benzene-1,2-diol, reference compound], the “negative cardiovascular events (blood pressure and pulse)” value in series [2] is “these events have not been observed”. The “concentration required for the same response (reduction of cleaved caspase 3 and TNFalpha)” value with Rat Müller cells (rMC-1) (Müller cells in high glucose, compared with 50 nM Compound 2) was 10 µM. Moreover, in the series with Rat Müller cells (rMC-1) (Müller cells in hyperglycemic conditions, isoproterenol, concentration not given), the “cleaved caspase 3 levels, in words” value is “can decrease cleaved caspase 3 levels”. In the series on Rat Müller cells (rMC-1) (setting [5]), the “time for blockade of apoptosis” value was determined as 24 h and the “time for inhibition of TNFalpha activity” value was at most 1 h. In series [1] (REC in hyperglycemic conditions, isoproterenol, concentration not given), the “cleaved caspase 3 levels, in words” value is reported as “can decrease cleaved caspase 3 levels”. The “TNFalpha reduction, in words” value in series [1] (retinal endothelial cells, 10 μM in vitro) is on record as “did not significantly reduce TNFalpha”.

On to `CC(C)NCC(O)COc1cccc2ccccc12` (centres unmarked) [propranolol], for which, in the series on retina, the “electrical activity in the retina” value is “produced significant deficits in the electrical activity in the retina” and the “growth factors that may promote neovascularization” value was “activated growth factors that may promote neovascularization”.
